Measurements reported in US20260118363A1, “Application of GLUN2A and NMDA Receptor Containing GLUN2A as Targets in Screening Drugs for Treating Depression” (Synphatec (Shanghai) Biopharmaceutical Technology Co., Ltd., priority 2021, published 2026).

Assays:
[1] = system: excitatory neurons in the hippocampus; assay: Whole cell recording of intrinsic excitability in hippocampal slices; assay type: cell-based, mouse; settings: for excitability of hippocampal neurons (number of action potentials): MK-801 10 µM, ketamine 20 µM
Description: The beaker containing choline chloride slice solution was placed in an ice box and continuously introduced with a mixture of 95% O2 and 5% CO2 to saturate it with oxygen for use. After anesthetized with isoflurane, mice aged 4-8 weeks were quickly decapitated and euthanized. After exposing the skull and peeling off the dura mater, the whole brain was placed in a pre-cooled choline chloride solution for about 1 minute to reduce brain temperature. The whole brain was then taken out and the bilateral hippocampus were peeled off and attached to the surface of the agar block with one end of the hippocampus close to one of the edges of the agar block, after which the hippocampus-attached agar block was glued with 502 adhesive to a removable tray of the oscillating slicer, which was secured in the slicing tank of the oscillating slicer filled with pre-cooled choline chloride slicing solution. The oscillating slicer blade was adjusted to the horizontal position, then start the slicer to begin slice. The speed of the oscillating slicer was set to about 0.2 mm/s, and the slice thickness was 400 μm. The sliced hippocampus was carefully placed into ACSF preheated in water bath at 33-34° C. using a rubber hose and incubated for 30-60 minutes with a continuous introduction of a gas mixture of 95% O2 and 5% CO2. After incubation at 33-34° C., the vessel containing the brain slices was removed from the water bath and incubated at room temperature for about 30 min with continuous aeration and then electrophysiological recordings were performed. Hippocampal slices can be used for about 6 hours under room temperature with continuous aeration.
Hippocampal slices after incubation were carefully transferred to the bath of the microscope carrier stage with a pipette, and were held in place by pressing using an anchor attached to parallel nylon filaments, using a peristaltic pump to keep the bath continuously pumped with oxygen-saturated ACSF, and the temperature was maintained at room temperature of about 23-26° C. The CA1 region of the hippocampus was firstly localised at low magnification (10×), then switching to high magnification (40×) to locate CA1, after which the field of view was switched to the monitor to look for pyramidal neurons with good condition in hippocampal CA1. […] In the experiment, a P-1000 electrode drawing instrument was used to draw glass electrodes using a three-step method, making the impedance of the electrode into the liquid 4-6 MS2. Prior to electrode into the liquid, a 10 ml syringe was used to apply about 2 ml or so of positive pressure into the electrode to prevent clogging of the electrode tip, and the baseline of the recording software was reset to zero using the Multiple 700B. A microelectrode operator was applied to slowly approach the electrode to the surface of the cell. When the electrode touched the surface of the cell, a “dimple-shaped” depression would appear. At this time, positive pressure would be immediately released and appropriate negative pressure would be applied to form a seal between the electrode and the cell. […] After stabilizing for about 30-60 seconds, negative pressure was applied to break the membrane, and at this moment, a whole cell mode was formed. In current clamp mode, a depolarized step current stimulation of 10-330 pA was applied, with a step current of 20 pA. The intrinsic excitability of the neuron was evaluated by analyzing the number of action potentials generated by the neuron.

mice [2] = assay: Forced swim test; assay type: in vivo, mouse; settings: for immobility time in the forced swim test: 10 mg/kg intraperitoneal injection, 1 hour after injection
Description: The mice were placed in a transparent organic glass water tank with a diameter of 25 cm and a height of 30 cm, which was filled with 15 cm high of water with a temperature of 23-25° C., and the total recording time was 6 min. The immobility time of the mice within the latter 4 min was analysed, reflecting the degree of helplessness and despair of the mice.
(§1) MK-801 at a dose of 0.1 mg/kg, ketamine at a dose of 10 mg/kg, and Ro 25-6981 at a dose of 10 mg/kg were administrated to mice by intraperitoneal injection. Behavioural experiments such as subsequent open field tests, tail suspension tests, and forced swim tests were carried out 1 hour post intraperitoneal injection.

mice [3] = assay: Tail suspension test; assay type: in vivo, mouse; settings: 10 mg/kg
Description: After fixing the mice at about 1.5 cm from the distal end of the tail, the mice were suspended with their heads facing downwards at a distance of about 35 cm from the ground. The total duration of recording was 6 min, and the percentage of time that the mice remained stationary during the latter 4 min was analysed to reflect the degree of desperation of mice.
as §1

[4] = hippocampal slices from GluN2A KO mice
[5] = hippocampal slices from WT mice, Ro 25-6981 3 M (1-2 hours incubation), same depolarizing current stimulation
[6] = GluN2A KO mice, vs control group

SMILES	intrinsic excitability of excitatory neurons in the hippocampus ([1]; acute hippocampal slices of WT mice incubated with Ro 25-6981 while adding MK-801)	excitability of hippocampal neurons (number of action potentials) [1, 4]	excitability of hippocampal neurons (number of action potentials) [1, 5]	immobility time in the forced swim test (mice [2]; [6])	immobility time in forced swimming (mice [2]; GluN2A conditional knockout mice (tamoxifen-induced, adult), after treatment with MK-801 (FIG. 5))	rapid antidepressant like behavior (immobility time) (mice [2]; WT mice with GluN2B selectively inhibited by Ro 25-6981 plus MK-801, FIG. 11: tail suspension and forced swim tests)	immobility time in the forced swim test (mice [2]; WT mice, vs control (saline))	immobility time in forced swimming (mice [2]; control mice (UBC-CreERT/Grin2a flox/flox without GluN2A knockout), after administration of MK-801 (FIG. 5))	immobility time in tail suspension test (mice [3]; GluN2A KO mice)	immobility time in tail suspension test (mice [3]; WT mice, vs control (Saline) group)
C[C@]12N[C@H](Cc3ccccc31)c1ccccc12 [MK-801]	still induced an increase	blocked the increase in excitability	significantly increased	comparable	not altered	can still induce rapid antidepressant like behavior	significantly reduced	significantly reduced		
CNC1(c2ccccc2Cl)CCCCC1=O (centres unmarked) [ketamine]		blocked the increase in excitability	significantly increased	comparable			significantly reduced			
C[C@@H](CN1CCC(Cc2ccccc2)CC1)[C@@H](O)c1ccc(O)cc1 [Ro 25-6981]			did not change	significantly reduced			significant decrease		significantly reduced	significant decrease
